Results: patent US6583150B1, “Pharmaceutical composition based on polyaromatic compounds” (Laboratorie L. Lafon, priority 1999, dated 2003)

Tests used:
T-47D = experiment: MTT cytotoxicity test, T-47D; format: cell-based; settings: Homo sapiens, T47D, T-47D breast cancer, 72 hours, read-out: concentrations flanking the IC50
Experimental: (§1) The influence of the compounds of formulae I and II on neoplastic cells was evaluated using the MTT calorimetric test. The principle of the MTT test is based on the mitochondrial reduction by metabolically active live cells of the yellow-colored product MTT (3-(4,5-dimethylthiazol-2-yl)-2,5-diphenyltetrazolium bromide) to a blue-colored product, formazan. The amount of formazan thus obtained is directly proportional to the amount of live cells present in the culture well(s). This amount of formazan is measured by spectrophotometry.
(§2) The cell lines are maintained in monolayer culture at 37° C. in stoppered culture dishes containing 25 MM HEPES MEM (Minimum Essential Medium) base medium. This medium, which is suitable for growing a range of varied diploid or primary mammalian cells, is then supplemented: […]
(§3) with a an amount of 5% FCS (Fetal Calf Serum) decomplemented at 56° C. for 1 hour, with 0.6 mg/mL of L-glutamine, with 200 IU/mL of penicillin, with […] of streptomycin, with 0.1 mg/mL of gentamicin.
(§4) The 12 human cancer cell lines used were obtained from the American Type Culture Collection (ATCC, Rockville, Md., USA). These 12 cell lines are: […]

T24 = experiment: MTT cytotoxicity test, T24; format: cell-based; settings: Homo sapiens, T-24, T24 bladder cancer, 72 hours, read-out: concentrations flanking the IC50
Experimental: as §1, §2, §3, §4

[1] = Determination of the maximum tolerated dose (MTD); format: in vivo; settings: mouse, in vivo, ip; single intraperitoneal administration, survival over 14 days, B6D2F1/Jico mice
Experimental: The evaluation of the maximum tolerated dose was carried out on 4- to 6-week-old B6D2F1/Jico mice. […] The value of the MTD (expressed in mg/kg) is determined from observing the survival rate of the animals over a period of 14 days after a single administration of the product under consideration. The change in the weight of the animals is also monitored over this period.

In the case of `O=C1c2ncccc2-c2nc3ccccc3c3ccnc1c23` [CRL 8299, Benzo[b]pyrido[4,3,2-de][1,7]phenanthroline-8-one], the IC50 (T-47D) is reported as 10 nM, the IC50 (T24) is reported as < 0.1 nM and the MTD at 14 days [1] is reported as 80 mg/kg.
